Data taken from patent US7736624B2, “Methods and compositions for diagnostic and therapeutic targeting of COX-2” (priority 2006, dated 2010).
Where two headings read alike, the source gives them in different places.

Experiments:
[1] = target: T1, ovine COX-1 (Ovis aries, UniProt P05979); assay: IC50 determinations using purified enzymes (TLC assay), COX-1; type: biochemical; conditions: assayed against purified enzymes
T1 construct: can be purified from ovine seminal vesicles by standard procedures; from tissue; host or cells: ovine seminal vesicles
T1 sequence (P05979 25-600): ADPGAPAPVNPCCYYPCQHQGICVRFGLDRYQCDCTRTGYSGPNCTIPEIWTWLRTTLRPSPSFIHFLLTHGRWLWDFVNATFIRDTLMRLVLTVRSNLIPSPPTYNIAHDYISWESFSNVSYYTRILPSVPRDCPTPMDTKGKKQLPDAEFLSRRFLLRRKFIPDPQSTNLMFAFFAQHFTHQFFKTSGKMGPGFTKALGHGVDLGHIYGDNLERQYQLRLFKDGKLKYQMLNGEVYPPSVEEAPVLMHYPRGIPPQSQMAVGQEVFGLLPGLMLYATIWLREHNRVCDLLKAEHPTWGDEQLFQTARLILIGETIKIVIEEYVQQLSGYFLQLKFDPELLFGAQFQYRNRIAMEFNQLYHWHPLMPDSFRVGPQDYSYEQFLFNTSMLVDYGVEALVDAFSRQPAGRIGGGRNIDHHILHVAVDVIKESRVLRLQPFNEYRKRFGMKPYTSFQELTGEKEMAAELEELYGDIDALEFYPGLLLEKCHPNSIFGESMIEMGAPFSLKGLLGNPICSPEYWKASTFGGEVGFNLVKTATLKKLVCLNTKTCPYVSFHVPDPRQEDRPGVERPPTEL
Text: (§1) Those skilled in the art will appreciate that an evaluation of the selectivity and efficacy of binding of the NSAID derivative to the COX-2 enzyme, e.g., after the derivative is synthesized, can be desirable. […] One example of an in vitro screening method takes advantage of the fact that both human and murine recombinant COX-2 can be expressed and isolated in pure form from an Sf9 cell expression system. […] Alternatively, membrane preparations from outdated human platelets can provide a source of human COX-1. […] The reaction is stopped by the addition of ethanol/methanol/1 M citrate, pH 4.0 (30:4:1). The extracted products are separated by thin layer chromatography (TLC), which allows quantitation of total product formation as well as assessment of product distribution. This assay is useful to define IC50 values for inhibition of either enzyme, and to determine time-dependency of inhibition. It also provides information concerning changes in products formed as a result of inhibition.
(§2) Reactions were terminated by solvent extraction in Et2O/CH3OH/1 M citrate, pH 4.0 (30:4:1). The phases were separated by centrifugation at 2000 g for 5 minutes and the organic phase was spotted on a 20×20 cm TLC plate (Lieselgel 60, EMD Chemicals, Inc., Gibbstown, N.J., United States of America). The plate was developed in EtOAc/CH2Cl2/glacial AcOH (75:25:1) at 4° C. Radiolabeled prostanoid products were quantitatively determined with a radioactivity scanner available from Bioscan, Inc. (Washington, D.C., United States of America). The percentage of total products observed at different concentrations of the presently disclosed compositions was divided by the percentage of products observed for protein samples preincubated for the same amount of time with DMSO.

[2] = test system: 1483 HNSCC cells; assay: In vitro metabolism study (esterase hydrolysis) with 1483 HNSCC cells, RP-HPLC; type: in vitro ADME; conditions: up to 24 hours
Experimental: (§3) An in vitro metabolism study was performed with Compound 27i using 1483 HNSCC cells to check the enzymatic (esterase) hydrolysis of the conjugate and identify metabolites up to 24 hours (h).

[3] = as above; type: in vitro ADME; conditions: human, read-out: t1/2, disappearance of the parent conjugate (converted)
Experimental: as §3

[4] = target: T2, COX-2 (Homo sapiens, UniProt P35354); assay: IC50 determinations using purified enzymes (TLC assay), COX-2; type: biochemical; parameters: made in house; host or cells: Sf9 insect cells
T2 sequence (P35354 18-604): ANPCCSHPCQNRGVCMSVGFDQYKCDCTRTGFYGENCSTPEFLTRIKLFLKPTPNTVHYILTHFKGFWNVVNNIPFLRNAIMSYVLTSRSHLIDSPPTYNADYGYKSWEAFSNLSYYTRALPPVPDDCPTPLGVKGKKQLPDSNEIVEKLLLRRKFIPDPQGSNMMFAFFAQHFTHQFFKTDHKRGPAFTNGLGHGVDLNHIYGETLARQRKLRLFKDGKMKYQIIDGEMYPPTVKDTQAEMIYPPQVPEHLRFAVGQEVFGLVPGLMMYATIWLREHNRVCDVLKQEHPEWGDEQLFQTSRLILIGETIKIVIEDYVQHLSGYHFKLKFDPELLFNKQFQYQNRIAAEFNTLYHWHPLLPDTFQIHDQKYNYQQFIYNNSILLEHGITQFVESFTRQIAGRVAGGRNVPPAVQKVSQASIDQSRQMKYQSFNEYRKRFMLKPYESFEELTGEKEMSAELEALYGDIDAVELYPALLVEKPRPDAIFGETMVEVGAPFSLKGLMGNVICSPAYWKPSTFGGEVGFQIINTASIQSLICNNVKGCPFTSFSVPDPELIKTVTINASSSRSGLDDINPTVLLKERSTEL
Text: as §1, §2

[5] = test system: RAW264.7 cells; assay: In vitro cell imaging, LPS/IFNγ-activated RAW264.7 cells; type: cell-based, mouse; conditions: for fluorescence of control compounds in these in vitro assays: RAW264.7, HEK293/COX-2 and 1483 imaging assays
Experimental: RAW264.7 cells (a line established from a tumor induced in a mouse by Abelson murine leukemia virus and available from the American Type Culture Collection, Manassas, Va., United States of America) were grown overnight on 35 mm culture dishes (MatTek Corp., Ashland, Mass., United States of America) with glass coverslips in Dulbecco's Modified Eagle Medium (DMEM) plus 10% heat-inactivated fetal bovine serum (FBS). Platings of cells were done in order to reach 30% confluency the next day. After overnight growth, the growth medium was replaced with 2 ml serum-free DMEM per dish. Individual dishes then received 200 ng/ml LPS plus 10 units/ml murine IFNγ (Roche Applied Science, Indianapolis, Ind., United States of America) for 6 hours to induce COX-2. […] After 30 minutes, the cells were washed briefly three times in medium and incubated in Hank's balanced salt solution (HBSS)/Tyrode's for 60 minutes at 37° C. After 60 minutes, the HBSS/Tyrode's was removed and fresh HBSS/Tyrode's was added. The cells were immediately imaged using a Zeiss Axiovert 25 Microscope (propidium iodide filter/2-3 sec exposure/gain of 2).

[6] = target: T3, COX-1 (Mus musculus, UniProt P22437); assay: Macrophage assay (RAW264.7), COX-1; type: cell-based, murine; conditions: Table 2; macrophage assay (M)
T3 sequence (P22437 1-602): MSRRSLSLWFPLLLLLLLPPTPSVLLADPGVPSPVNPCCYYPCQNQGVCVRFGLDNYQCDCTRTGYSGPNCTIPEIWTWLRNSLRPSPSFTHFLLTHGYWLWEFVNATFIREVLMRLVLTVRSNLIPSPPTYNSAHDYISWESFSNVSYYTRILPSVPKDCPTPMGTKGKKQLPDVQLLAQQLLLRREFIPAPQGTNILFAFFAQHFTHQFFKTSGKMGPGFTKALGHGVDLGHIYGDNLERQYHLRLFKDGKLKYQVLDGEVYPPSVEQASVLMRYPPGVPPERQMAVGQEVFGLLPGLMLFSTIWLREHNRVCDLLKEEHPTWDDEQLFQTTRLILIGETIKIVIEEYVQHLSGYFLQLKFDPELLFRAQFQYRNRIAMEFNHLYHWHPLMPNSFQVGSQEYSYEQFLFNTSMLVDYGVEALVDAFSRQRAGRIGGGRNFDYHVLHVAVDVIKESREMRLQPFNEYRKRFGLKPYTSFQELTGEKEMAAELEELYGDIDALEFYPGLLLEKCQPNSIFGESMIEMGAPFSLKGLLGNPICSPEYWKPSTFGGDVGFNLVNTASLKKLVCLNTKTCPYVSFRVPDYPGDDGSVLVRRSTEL
Text: (§4) Thus, NSAID derivatives that are identified as potentially useful in the methods described herein can be further tested using, for example, the RAW264.7 murine macrophage cell line. These cells are readily available (for example, from the American Type Culture Collection (ATCC), Manassas, Va., United States of America) and are easily cultured in large numbers. They normally express low levels of COX-1 and very low to undetectable levels of COX-2. Upon exposure to bacterial lipopolysaccharide (LPS), however, COX-2 levels increase dramatically over the ensuing 24 hour period, and the cells produce PGD2 and PGE2 from endogenous arachidonic acid stores (generally, ˜1 nmol/10^7 cells total PG formation). After LPS exposure, the addition of exogenous arachidonic acid results in the formation of additional PGD2 and PGE2 as a result of metabolism by the newly synthesized COX-2.
(§5) This system provides a number of approaches for testing the inhibitory potency of COX-2-selective ligands (e.g., inhibitors). In general, following LPS activation, cells can be treated for 30 minutes with the desired concentrations of candidate derivative(s) in DMSO. ^14C-arachidonic acid can be added, and the cells can be incubated for 15 minutes at 37° C. Product formation can be assessed following extraction and TLC separation of the culture medium. Alternatively, the effects of candidate derivatives on PG synthesis from endogenous arachidonic acid can be assessed by incubating cells with desired concentrations of candidate derivatives 30 minutes prior to LPS exposure. Following a 24-hour incubation, medium can be collected and extracted, and the amount of PGD2 and/or PGE2 can be assayed by gas chromatography-mass spectrometry, liquid chromatography-mass spectrometry, or ELISA.

[7] = target: T4, COX-2 (Mus musculus, UniProt Q05769); assay: Macrophage assay (RAW264.7), COX-2; type: cell-based, murine; conditions: Table 2; macrophage assay (M); read-out: IC50 COX-2
T4 construct: metabolism by the newly synthesized COX-2; endogenous in cells
T4 sequence (Q05769 18-604): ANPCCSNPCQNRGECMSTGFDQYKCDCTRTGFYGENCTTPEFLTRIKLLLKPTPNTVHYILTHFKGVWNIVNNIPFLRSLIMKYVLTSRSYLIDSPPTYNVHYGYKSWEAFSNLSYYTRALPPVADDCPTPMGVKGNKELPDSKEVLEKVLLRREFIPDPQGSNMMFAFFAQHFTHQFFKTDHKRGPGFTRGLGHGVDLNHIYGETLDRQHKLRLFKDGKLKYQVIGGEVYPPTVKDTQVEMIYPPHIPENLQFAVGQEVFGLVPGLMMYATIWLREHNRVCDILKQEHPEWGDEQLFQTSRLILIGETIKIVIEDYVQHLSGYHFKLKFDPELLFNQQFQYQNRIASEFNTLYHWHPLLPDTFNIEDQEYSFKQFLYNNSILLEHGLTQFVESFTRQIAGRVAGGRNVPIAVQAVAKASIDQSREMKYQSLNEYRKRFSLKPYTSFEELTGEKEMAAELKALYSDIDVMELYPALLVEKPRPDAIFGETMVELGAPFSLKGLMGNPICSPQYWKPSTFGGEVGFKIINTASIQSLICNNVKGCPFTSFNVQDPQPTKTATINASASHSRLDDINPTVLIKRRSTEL
Text: as §4, §5

[8] = test system: COX-1; conditions: literature; cited from earlier work
[9] = target: T5, COX-1 (Ovis aries, UniProt P05979); conditions: literature; cited from earlier work
T5 sequence (P05979 25-600): T1 sequence (P05979 25-600)

[10] = target: T2, COX-2; parameters: 1483 Head/Neck Squamous Cell Carcinoma Cells (Sacks et al. (1988) Cancer Res 48, 2858-2866), which express COX-2; endogenous in cells; host or cells: 1483 HNSCC cells; conditions: literature; cited from earlier work
[11] = Table 3, assayed against purified enzymes, read-out: IC50 COX-2

## COc1ccc2c(c1)c(CC(=O)NCCOC(=O)\C=C(C)/C=C/C=C(C)/C=C/C1=C(C)CCCC1(C)C)c(C)n2C(=O)c1ccc(Cl)cc1 [Compound 27i]
[1]; Table 1
  IC50: > 4 µM
[2]
  parent conjugate remained: 25%
[3]
  half-life: 5.5 h
[4]; purified enzyme, read-out: COX-2 IC50
  IC50: 0.107 µM

## COc1ccc2c(c1)c(CC(=O)NCCNC(=O)c1ccc(C(=O)[O-])c(C3=c4cc5c6c(c4Oc4c3cc3c7c4CCCN7CCC3)CCC[N+]=6CCC5)c1)c(C)n2C(=O)c1ccc(Cl)cc1 [Compound 27ww]
[5]; 200 nM, 30 minutes, LPS-activated RAW264.7
  fluorescence imaging of cells: No fluorescence above background
[5]
  fluorescence of control compounds in these in vitro assays: minimal fluorescence
[1]; Table 3
  IC50: > 25 µM
[4]; [11]
  IC50: > 25 µM

## COc1ccc2c(c1)c(CCNC(=O)c1ccc(C3=c4cc5c6c(c4Oc4c3cc3c7c4CCCN7CCC3)CCC[N+]=6CCC5)c(C(=O)[O-])c1)c(C)n2Cc1ccc(Br)cc1 [Compound 28f]
[5]
  fluorescence of control compounds in these in vitro assays: minimal fluorescence
[1]; Table 3
  IC50: > 25 µM
[4]; [11]
  IC50: > 25 µM

## Cc1ccc(-c2cc(CCC(=O)O)nn2-c2ccc(S(N)(=O)=O)cc2)cc1 [Compound 30c, 3-[1-{p-(Sulfonamido)phenyl}-5-p-tolyl-1H-pyrazol-3-yl]propanoic acid]
[6]
  IC50: > 5e-06 M
[7]
  IC50: 1.4e-06 M
[4]; Table 2, assayed against purified enzymes, read-out: IC50 COX-2
  IC50: 8.9 µM

## COc1ccc2c(c1)c(CC(=O)O)c(C)n2C(=O)c1ccc(Cl)cc1 [Indomethacin, indomethacin]
[8]
  potency as ligand of COX-1 relative to COX-2: approximately 15 fold

## O=C(c1ccccc1)c1ccc2n1CCC2C(=O)NCc1ccc(F)cc1 (stereo not drawn) [p-fluorobenzylamide of ketorolac]
[9]
  IC50: > 65 µM
[10]
  IC50: 0.08 µM

## COc1ccc2c(c1)c(CC(=O)Nc1ccc(F)cc1)c(C)n2C(=O)c1ccc(Cl)cc1 [p-fluorophenylamide of indomethacin, indomethacin-N-(4-fluorophenyl)amide]
[9]
  IC50: > 66 µM
